# Columns and labels:
# BLK = BLK (Homo sapiens, UniProt P51451); experiment: scanMAX binding POC, BLK; conditions: 1 μM
# ERBB4 = ERBB4 (Homo sapiens, UniProt Q15303); experiment: scanMAX binding POC, ERBB4; conditions: 1 μM
# MKK7 = molecular target: T1, MKK7 (Homo sapiens, UniProt O14733); experiment: scanMAX binding POC, MKK7; conditions: 1 μM
# T1 sequence (O14733 1-419): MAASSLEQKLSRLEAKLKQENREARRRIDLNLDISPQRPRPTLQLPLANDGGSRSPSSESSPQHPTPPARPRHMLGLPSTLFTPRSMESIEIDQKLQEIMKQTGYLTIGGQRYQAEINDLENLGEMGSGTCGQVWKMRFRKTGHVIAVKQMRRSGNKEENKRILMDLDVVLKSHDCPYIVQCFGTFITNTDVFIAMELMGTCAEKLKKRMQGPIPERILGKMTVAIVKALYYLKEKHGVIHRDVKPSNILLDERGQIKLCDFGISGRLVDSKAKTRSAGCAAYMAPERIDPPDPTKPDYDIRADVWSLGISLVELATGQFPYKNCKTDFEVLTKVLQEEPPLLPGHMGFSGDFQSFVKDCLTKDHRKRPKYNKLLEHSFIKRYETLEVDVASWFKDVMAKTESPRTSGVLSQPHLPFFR
# ITK = molecular target: T2, ITK (Homo sapiens, UniProt Q08881); experiment: scanMAX binding POC, ITK; conditions: 1 μM
# T2 sequence (Q08881 1-620): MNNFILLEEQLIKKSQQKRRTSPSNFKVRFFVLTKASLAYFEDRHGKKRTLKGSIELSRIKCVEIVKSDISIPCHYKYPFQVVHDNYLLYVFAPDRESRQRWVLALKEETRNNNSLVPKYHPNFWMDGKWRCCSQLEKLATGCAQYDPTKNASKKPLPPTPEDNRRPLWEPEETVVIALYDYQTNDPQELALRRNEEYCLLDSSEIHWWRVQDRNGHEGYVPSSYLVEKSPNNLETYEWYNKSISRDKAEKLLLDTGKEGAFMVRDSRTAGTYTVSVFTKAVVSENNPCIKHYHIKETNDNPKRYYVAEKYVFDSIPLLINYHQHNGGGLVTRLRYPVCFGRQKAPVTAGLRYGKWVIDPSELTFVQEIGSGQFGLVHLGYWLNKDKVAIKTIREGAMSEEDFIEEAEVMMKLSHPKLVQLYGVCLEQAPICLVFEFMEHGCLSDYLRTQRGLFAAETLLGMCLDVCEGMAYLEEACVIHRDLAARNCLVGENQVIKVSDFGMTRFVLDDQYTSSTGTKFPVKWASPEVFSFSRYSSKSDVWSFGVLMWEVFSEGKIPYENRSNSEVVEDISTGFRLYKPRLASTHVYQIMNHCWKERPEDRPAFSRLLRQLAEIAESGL
# ERBB3 = ERBB3 (Homo sapiens, UniProt P21860); experiment: scanMAX binding POC, ERBB3; conditions: 1 μM
# BTK = conditions: cited from earlier work
# EGFR = EGFR (Homo sapiens, UniProt P00533); experiment: scanMAX binding POC, EGFR; conditions: 1 μM
# JNK3 (MAPK10) = JNK3 (MAPK10) (Homo sapiens, UniProt P53779); experiment: scanMAX binding POC, JNK3; conditions: 1 μM
# [1] = molecular target: T3, JAK3 (JH1 catalytic domain) (Homo sapiens, UniProt P52333); experiment: scanMAX binding POC, JAK3; conditions: 1 μM
# T3 construct: The JAK3 POC is for its JH1 catalytic domain
# JNK2 (MAPK9) = JNK2 (MAPK9) (Homo sapiens, UniProt P45984); experiment: scanMAX binding POC, JNK2; conditions: 1 μM
# TXK = molecular target: T4, TXK (Homo sapiens, UniProt P42681); experiment: scanMAX binding POC, TXK; conditions: 1 μM
# T4 sequence (P42681 1-527): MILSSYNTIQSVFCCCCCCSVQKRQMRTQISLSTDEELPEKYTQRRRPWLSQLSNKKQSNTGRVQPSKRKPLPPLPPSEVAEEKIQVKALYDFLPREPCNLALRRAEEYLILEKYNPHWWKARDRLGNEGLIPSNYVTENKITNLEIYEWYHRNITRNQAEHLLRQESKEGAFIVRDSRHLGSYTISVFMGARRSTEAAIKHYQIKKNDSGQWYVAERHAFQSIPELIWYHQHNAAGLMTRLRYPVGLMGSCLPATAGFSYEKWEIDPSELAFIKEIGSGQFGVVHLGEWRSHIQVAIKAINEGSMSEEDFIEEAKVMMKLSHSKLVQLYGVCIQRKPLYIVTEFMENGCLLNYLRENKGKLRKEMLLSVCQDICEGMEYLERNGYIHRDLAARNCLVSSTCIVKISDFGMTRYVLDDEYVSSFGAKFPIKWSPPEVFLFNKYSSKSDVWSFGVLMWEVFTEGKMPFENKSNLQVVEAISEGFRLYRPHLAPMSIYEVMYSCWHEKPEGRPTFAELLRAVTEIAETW
# ERBB2 = ERBB2 (Homo sapiens, UniProt P04626); experiment: scanMAX binding POC, ERBB2; conditions: 1 μM
# Sequence of ERBB2 (P04626 23-1255): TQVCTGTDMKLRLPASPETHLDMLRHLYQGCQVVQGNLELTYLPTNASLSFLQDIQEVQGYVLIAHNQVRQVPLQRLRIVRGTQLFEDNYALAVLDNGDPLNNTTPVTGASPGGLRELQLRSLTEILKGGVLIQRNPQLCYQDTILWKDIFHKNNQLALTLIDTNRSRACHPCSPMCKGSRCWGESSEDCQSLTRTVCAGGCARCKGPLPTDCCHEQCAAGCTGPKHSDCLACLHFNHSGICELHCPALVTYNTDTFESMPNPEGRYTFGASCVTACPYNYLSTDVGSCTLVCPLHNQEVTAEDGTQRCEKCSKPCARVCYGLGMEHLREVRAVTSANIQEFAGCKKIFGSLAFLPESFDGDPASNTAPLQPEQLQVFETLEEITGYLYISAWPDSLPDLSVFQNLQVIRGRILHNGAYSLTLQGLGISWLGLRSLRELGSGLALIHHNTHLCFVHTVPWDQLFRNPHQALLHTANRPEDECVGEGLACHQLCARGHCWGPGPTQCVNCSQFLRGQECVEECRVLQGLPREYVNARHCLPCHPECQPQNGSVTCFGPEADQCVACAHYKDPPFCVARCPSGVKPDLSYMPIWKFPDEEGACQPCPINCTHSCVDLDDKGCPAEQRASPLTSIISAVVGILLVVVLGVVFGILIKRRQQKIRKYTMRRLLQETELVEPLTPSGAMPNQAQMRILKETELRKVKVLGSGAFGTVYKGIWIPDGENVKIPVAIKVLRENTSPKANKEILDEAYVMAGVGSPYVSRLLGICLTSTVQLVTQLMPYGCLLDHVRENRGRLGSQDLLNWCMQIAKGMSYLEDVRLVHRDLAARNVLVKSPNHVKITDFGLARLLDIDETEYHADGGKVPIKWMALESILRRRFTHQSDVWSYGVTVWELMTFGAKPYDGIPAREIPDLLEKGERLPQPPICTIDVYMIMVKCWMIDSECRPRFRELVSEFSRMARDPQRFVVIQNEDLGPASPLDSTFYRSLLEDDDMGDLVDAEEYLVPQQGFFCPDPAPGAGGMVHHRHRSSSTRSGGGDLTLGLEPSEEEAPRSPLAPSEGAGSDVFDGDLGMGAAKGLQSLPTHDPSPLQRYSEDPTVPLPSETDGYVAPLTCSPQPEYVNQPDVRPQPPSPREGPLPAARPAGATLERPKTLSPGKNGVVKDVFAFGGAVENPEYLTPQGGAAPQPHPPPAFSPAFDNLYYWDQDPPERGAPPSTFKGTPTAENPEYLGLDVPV
# T3 sequence (P52333 822-1111 limits assumed): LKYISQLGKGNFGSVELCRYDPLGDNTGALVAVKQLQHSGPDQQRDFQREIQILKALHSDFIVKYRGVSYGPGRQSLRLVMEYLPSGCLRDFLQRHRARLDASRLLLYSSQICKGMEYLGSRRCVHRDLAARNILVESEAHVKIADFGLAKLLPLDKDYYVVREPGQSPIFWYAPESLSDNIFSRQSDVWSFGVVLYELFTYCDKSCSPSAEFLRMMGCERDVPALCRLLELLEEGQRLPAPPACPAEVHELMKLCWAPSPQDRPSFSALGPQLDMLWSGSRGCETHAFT
# Sequence of EGFR (P00533 25-1210): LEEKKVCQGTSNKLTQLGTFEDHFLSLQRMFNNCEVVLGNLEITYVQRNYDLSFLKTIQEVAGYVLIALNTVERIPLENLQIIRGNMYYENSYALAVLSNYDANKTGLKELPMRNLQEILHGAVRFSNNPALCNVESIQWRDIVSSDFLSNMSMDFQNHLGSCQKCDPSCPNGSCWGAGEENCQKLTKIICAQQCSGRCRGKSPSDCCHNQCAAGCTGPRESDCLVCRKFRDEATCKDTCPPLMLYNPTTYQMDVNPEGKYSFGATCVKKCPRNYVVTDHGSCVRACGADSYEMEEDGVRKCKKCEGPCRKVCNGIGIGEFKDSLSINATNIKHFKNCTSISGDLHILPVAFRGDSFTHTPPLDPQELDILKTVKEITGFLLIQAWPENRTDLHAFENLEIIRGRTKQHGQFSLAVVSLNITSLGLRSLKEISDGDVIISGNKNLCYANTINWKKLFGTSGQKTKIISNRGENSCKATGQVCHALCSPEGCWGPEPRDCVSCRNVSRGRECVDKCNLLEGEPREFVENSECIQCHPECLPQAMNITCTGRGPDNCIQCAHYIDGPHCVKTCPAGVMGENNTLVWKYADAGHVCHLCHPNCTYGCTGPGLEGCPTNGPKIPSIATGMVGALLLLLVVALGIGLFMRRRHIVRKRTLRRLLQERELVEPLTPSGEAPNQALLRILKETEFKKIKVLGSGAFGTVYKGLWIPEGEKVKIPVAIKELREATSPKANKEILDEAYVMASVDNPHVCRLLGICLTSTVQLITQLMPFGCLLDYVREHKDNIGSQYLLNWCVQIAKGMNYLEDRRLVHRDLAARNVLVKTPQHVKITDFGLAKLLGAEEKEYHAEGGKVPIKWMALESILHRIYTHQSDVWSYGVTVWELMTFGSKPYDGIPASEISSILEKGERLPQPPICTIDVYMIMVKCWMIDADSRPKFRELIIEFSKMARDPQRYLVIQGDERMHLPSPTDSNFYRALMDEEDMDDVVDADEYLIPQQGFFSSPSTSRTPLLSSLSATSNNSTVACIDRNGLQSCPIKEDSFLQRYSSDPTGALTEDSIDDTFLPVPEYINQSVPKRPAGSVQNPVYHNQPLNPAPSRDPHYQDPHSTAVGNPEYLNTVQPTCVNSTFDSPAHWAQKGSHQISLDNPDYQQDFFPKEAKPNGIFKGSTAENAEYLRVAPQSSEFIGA
# Sequence of BLK (P51451 whole entry): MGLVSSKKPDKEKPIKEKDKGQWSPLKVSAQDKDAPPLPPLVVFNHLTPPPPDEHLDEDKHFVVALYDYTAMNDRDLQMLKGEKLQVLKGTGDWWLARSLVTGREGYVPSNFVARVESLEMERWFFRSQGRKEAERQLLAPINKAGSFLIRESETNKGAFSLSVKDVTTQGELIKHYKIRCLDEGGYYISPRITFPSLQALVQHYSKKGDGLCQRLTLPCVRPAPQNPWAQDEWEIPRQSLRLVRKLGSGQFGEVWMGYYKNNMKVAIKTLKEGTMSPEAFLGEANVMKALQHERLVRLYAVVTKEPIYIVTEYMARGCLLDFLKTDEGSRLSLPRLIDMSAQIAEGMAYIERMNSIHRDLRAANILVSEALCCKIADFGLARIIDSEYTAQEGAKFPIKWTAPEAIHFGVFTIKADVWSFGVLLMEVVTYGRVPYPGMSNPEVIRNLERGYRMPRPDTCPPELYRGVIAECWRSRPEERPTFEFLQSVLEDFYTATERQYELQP
# Sequence of JNK3 (MAPK10) (P53779 whole entry, the tested form may be a part): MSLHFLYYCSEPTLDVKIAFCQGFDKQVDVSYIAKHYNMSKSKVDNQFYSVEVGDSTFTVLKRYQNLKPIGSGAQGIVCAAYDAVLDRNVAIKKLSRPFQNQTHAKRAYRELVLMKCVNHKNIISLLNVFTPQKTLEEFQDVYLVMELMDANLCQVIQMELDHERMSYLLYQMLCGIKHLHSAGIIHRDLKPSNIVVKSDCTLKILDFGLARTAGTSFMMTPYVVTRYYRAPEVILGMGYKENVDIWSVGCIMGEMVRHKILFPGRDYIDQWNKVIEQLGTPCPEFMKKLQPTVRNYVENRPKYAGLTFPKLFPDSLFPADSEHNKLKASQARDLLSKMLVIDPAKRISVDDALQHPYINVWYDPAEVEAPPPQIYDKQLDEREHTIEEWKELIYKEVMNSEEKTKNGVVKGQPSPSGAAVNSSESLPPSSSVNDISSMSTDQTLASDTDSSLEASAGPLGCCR
# Sequence of JNK2 (MAPK9) (P45984 whole entry): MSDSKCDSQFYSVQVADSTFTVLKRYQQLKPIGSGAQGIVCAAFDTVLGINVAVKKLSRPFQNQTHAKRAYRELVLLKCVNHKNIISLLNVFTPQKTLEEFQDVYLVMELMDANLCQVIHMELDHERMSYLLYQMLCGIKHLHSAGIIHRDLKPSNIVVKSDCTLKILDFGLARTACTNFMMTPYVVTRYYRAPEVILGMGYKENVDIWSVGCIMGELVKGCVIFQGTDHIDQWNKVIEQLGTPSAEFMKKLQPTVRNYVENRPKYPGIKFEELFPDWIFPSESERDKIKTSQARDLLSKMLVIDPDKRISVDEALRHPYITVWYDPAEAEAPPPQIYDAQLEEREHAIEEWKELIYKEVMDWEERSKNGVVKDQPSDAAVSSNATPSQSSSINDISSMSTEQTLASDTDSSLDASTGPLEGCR
SMILES,BLK binding POC (BLK),ERBB4 binding POC (ERBB4),MKK7 binding POC (MKK7),ITK binding POC (ITK),ERBB3 binding POC (ERBB3),IC50 (BTK),EGFR binding POC (EGFR),JNK3 (MAPK10) POC (JNK3 (MAPK10)),JAK3 binding POC [1],JNK2 (MAPK9) POC (JNK2 (MAPK9)),TXK binding POC (TXK),ERBB2 binding POC (ERBB2),MKK7 binding POC (MKK7; listed as elsubrutinib)
COc1ccc(F)cc1C(=O)NCc1ccc(-c2nn([C@@H](C)C(F)(F)F)c(N)c2C(N)=O)cc1 [Pirtobrutinib],69% of control,2% of control,91% of control,100% of control,97% of control,3.2 nM,0.5% of control,100% of control,77% of control,94% of control,11% of control,5.9% of control,
C=CC(=O)N1CCC[C@@H](c2ccc(C(N)=O)c3[nH]ccc23)C1 [Elsubrutinib],15% of control,91% of control,24% of control,94% of control,74% of control,180 nM,90% of control,94% of control,0.15% of control,91% of control,25% of control,73% of control,weak hit
O=C(c1ccc(Oc2ccccc2)cc1Cl)c1c[nH]c2ncnc(N[C@@H]3CC[C@@H](CO)OC3)c12 [Nemtabrutinib],0.3% of control,0.35% of control,39% of control,86% of control,0.9% of control,0.85 nM,0% of control,100% of control,86% of control,100% of control,2.7% of control,0% of control,
C=CC(=O)Nc1cccc(Oc2nc(Nc3ccc(N4CCN(C)CC4)cc3)nc3ccoc23)c1 [Poseltinib],0.85% of control,0.15% of control,100% of control,1% of control,97% of control,3 nM,1.2% of control,100% of control,0.45% of control,100% of control,4.4% of control,8.7% of control,
C=CC(=O)Nc1cccc(Nc2nc(Nc3ccc(OCCOC)cc3)ncc2F)c1 [Spebrutinib],22% of control,17% of control,79% of control,51% of control,83% of control,[…],49% of control,3.9% of control,0% of control,8.4% of control,4.5% of control,57% of control,
C[C@H]1CN(C2COC2)CCN1c1ccc(Nc2cc(-c3ccnc(N4CCn5c(cc6c5CC(C)(C)C6)C4=O)c3CO)cn(C)c2=O)nc1 [Fenebrutinib],60% of control,100% of control,89% of control,25% of control,78% of control,2.3 nM,95% of control,100% of control,95% of control,100% of control,53% of control,97% of control,
